According to patent publication US20110212466A1, “Thiol-Modified Surface Immobilization Article And Method” (priority 2009, published 2011):

Tested on: carbonic anhydrase (CAII)
Experiment: furosemide binding on immobilized CAII, Epic biosensor (Example 3)
Conditions: cystine in combination with glycine
Experimental: Step 3. Binding of protein inhibitor: The plate was equilibrated at ambient (25° C.) temperature for about 30 min before rinsing with PBS (on Biomek, following standard rinsing protocol). The plate was centrifuged and soaked in 0.1% DMSO in PBS for about 4 h at ambient temperature.
The plate was then read in the Epic® instrument for 20 min.

Q: Which binding does the source give for `NS(=O)(=O)c1cc(C(=O)O)c(NCc2ccco2)cc1Cl` [furosemide] here?
A: over 10 pm
